From patent publication US20090137579A1, “Mesylate salt of an IKK inhibitor” (Millennium Pharmaceuticals, Inc., priority 2007, published 2009)
Converted amounts (≈) assume the structure as drawn. Where a name gives a salt, the structure may show the parent alone. Read-outs that look alike come from different tables or passages of the source.

Experiments:
[1] = Gravimetric vapor sorption (GVS), hygroscopicity; assay type: physicochemical
Description: Gravimetric vapor sorption (GVS) data are collected using a SGA-100 Water Vapor Sorption Analyzer from VTI Corporation. Sample sizes are typically 10 mg. A moisture adsorption/desorption isotherm is recorded by subjecting samples to a series of relative humidity (RH) steps.

[2] = Water solubility (equilibrium solubility at ambient temperature); assay type: physicochemical
Description: The water solubility of Mesylate Salt Form 1 was measured at ambient temperature. Table 6 is a summary of the equilibrium solubility.

uptake (vapor sorption) ([1]; at 70% relative humidity (RH)) [%] | uptake (vapor sorption) ([1]; at 90% RH) [%] | solubility ([2]; pH 2.52, thermodynamic from solid, water, ambient temperature, equilibrium solubility, read-out: Solubility) [µg/mL] | pH ([2]; pH printed beside the equilibrium water solubility) | solubility ([2]; thermodynamic from solid, in water, crystalline Form 1, read-out: solubility) [µg/mL] | solubility ([2]; in water, crystalline free base, read-out: solubility) [µg/mL] | solubility ([2]; water, free base, read-out: intrinsic solubility) [µg/mL] | SMILES
1.5 | 3.4 | > 360000 | 2.52 | > 360000 | – | – | C[C@@H]1CN(C(=O)CN2CC(C)(C)OC[C@H]2C(=O)Nc2cc(Cl)cc3c2[nH]c2cnccc23)C[C@H](C)O1 [Mesylate Form 1, (S)—N-(6-chloro-9H-pyrido[3,4-b]indol-8-yl)-4-(2-((2S,6R)-2,6-dimethylmorpholino)-2-oxoethyl)-6,6-dimethylmorpholine-3-carboxamide Mesylate Form 1]
– | – | – | – | – | ~10 (≈ 19.5 µM) | ~10 (≈ 19.5 µM) | C[C@@H]1CN(C(=O)CN2CC(C)(C)OC[C@H]2C(=O)Nc2cc(Cl)cc3c2[nH]c2cnccc23)C[C@H](C)O1 [free base, (S)—N-(6-chloro-9H-pyrido[3,4-b]indol-8-yl)-4-(2-((2S,6R)-2,6-dimethylmorpholino)-2-oxoethyl)-6,6-dimethylmorpholine-3-carboxamide]
